From the supplement of paper PMC13380429

Key:
Settings in all cases: 72 h
Caco-2 [1] = assay: cell viability relative to DMSO; higher = less toxic
Calu-3 [2] = assay: as above
HepG2 [3] = assay: as above
U2OS [4] = assay: as above
Vero E6 [5] = assay: as above
Caco-2 [6] = assay: relative viability EC50 (midpoint between 100% and the lowest measured viability); higher = less toxic
HepG2 [7] = assay: as above
U2OS [8] = assay: as above
Vero E6 [9] = assay: as above
Caco-2 [10] = assay: drug sensitivity score (DSS) for viability; higher = more toxic; extreme values may be limits of the assay
Calu-3 [11] = assay: as above
HepG2 [12] = assay: as above
U2OS [13] = assay: as above
Vero E6 [14] = assay: as above
Calu-3 [15] = assay: relative viability EC50 (midpoint between 100% and the lowest measured viability); higher = less toxic

SMILES	cell viability (Caco-2 [1]; 1 nM)	cell viability (Caco-2 [1]; 10 nM)	cell viability (Caco-2 [1]; 100 nM)	cell viability (Caco-2 [1]; 1000 nM)	cell viability (Caco-2 [1]; 10000 nM)	cell viability (Calu-3 [2]; 1 nM)	cell viability (Calu-3 [2]; 10 nM)	cell viability (Calu-3 [2]; 100 nM)	cell viability (Calu-3 [2]; 1000 nM)	cell viability (Calu-3 [2]; 10000 nM)	cell viability (HepG2 [3]; 1 nM)	cell viability (HepG2 [3]; 10 nM)	cell viability (HepG2 [3]; 100 nM)	cell viability (HepG2 [3]; 1000 nM)	cell viability (HepG2 [3]; 10000 nM)	cell viability (U2OS [4]; 1 nM)	cell viability (U2OS [4]; 10 nM)	cell viability (U2OS [4]; 100 nM)	cell viability (U2OS [4]; 1000 nM)	cell viability (U2OS [4]; 10000 nM)	cell viability (Vero E6 [5]; 1 nM)	cell viability (Vero E6 [5]; 10 nM)	cell viability (Vero E6 [5]; 100 nM)	cell viability (Vero E6 [5]; 1000 nM)	cell viability (Vero E6 [5]; 10000 nM)	relative viability EC50 (Caco-2 [6])	relative viability EC50 (HepG2 [7])	relative viability EC50 (U2OS [8])	relative viability EC50 (Vero E6 [9])	drug sensitivity score (Caco-2 [10])	drug sensitivity score (Calu-3 [11])	drug sensitivity score (HepG2 [12])	drug sensitivity score (U2OS [13])	drug sensitivity score (Vero E6 [14])	relative viability EC50 (Calu-3 [15])
Cc1sc2c(c1C)C(c1ccc(Cl)cc1)=N[C@@H](CC(=O)Nc1ccc(OCCOCCOCCOCCNc3cccc4c3C(=O)N(C3CCC(=O)NC3=O)C4=O)cc1)c1nnc(C)n1-2 (stereo not given in full) [ARV-825]	91.4%	92.6%	90.1%	44%	51.7%	95.1%	91.4%	111%	72%	62.9%	95.4%	103%	89.9%	40.5%	25.2%	95.4%	93.6%	96.9%	51%	31.7%	94.6%	105%	91%	76.3%	11%	0.184 µM	0.381 µM	0.577 µM	1.55 µM	12	5	12.3	9.9	8.3	
Cc1ccsc1/C=C/C1=NCCCN1C [morantel]	94.6%	86%	72.7%	94.6%	84.2%	94.5%	111%	91.1%	101%	96.9%						98.2%	104%	97.2%	100%	96.9%	108%	104%	110%	101%	96.8%	> 10 µM		> 10 µM	> 10 µM	0	0		0	0	> 10 µM
CN1[C@@H]2CC[C@H]1C[C@@H](OC1c3ccccc3CCc3ccccc31)C2 [deptropine]	92.1%	97.5%	96.3%	92.5%	83.4%	98.8%	107%	108%	97.8%	72.8%	102%	96.3%	102%	98.6%	76.7%	101%	106%	99.9%	103%	93%	96.4%	93.8%	98.8%	93.8%	77.3%	> 10 µM	> 10 µM	> 10 µM	> 10 µM	0.3	1.4	1	0	1.6	
Oc1ccc2ccccc2c1Cc1c(O)ccc2ccccc12 [ST-1859]	90.3%	92.6%	97.5%	101%	75.8%	87.4%	94.8%	91.9%	93.9%	64.6%	103%	102%	93.9%	90.7%	86.9%	95.1%	101%	98.2%	104%	96.5%	98.3%	104%	102%	93%	95.2%	> 10 µM	> 10 µM	> 10 µM	> 10 µM	0.8	2.7	0.5	0	0	
C=CC(=O)Nc1cccc(Oc2nc(Nc3ccc(N4CCN(C)CC4)cc3OC)ncc2Cl)c1 [WZ-4002]	101%	95.9%	94.9%	94.4%	83.7%	94.4%	97%	90.8%	88.6%	56.9%	98.1%	101%	101%	104%	109%	94.5%	101%	98.9%	99.3%	93.5%	98.6%	102%	103%	88.4%	78.1%	> 10 µM	> 10 µM	> 10 µM	> 10 µM	0.3	3.5	0	0	2	
Nc1nnc(Sc2ncc([N+](=O)[O-])s2)s1 [SU3327]	105%	104%	103%	94.2%	8.8%	99.7%	104%	99.2%	100%	62.7%	100%	104%	96.1%	76.2%	0%	103%	92.7%	98%	93.4%	0.1%	101%	101%	98.8%	95.6%	1.4%	2.66 µM	1.59 µM	2.64 µM	2.83 µM	5.9	1.8	9.2	6.5	6.1	
Cc1onc(-c2ccccc2Cl)c1C(=O)N[C@@H]1C(=O)N2[C@@H]1SC(C)(C)[C@@H]2C(=O)O [cloxacillin]	102%	99.7%	98.5%	109%	95.8%						107%	116%	104%	90.8%	109%						94.5%	97.6%	99.7%	98.2%	106%	> 10 µM	> 10 µM		> 10 µM	0		0		0	
C[C@@H](c1nc(-c2ccc(C#N)cc2)cs1)[C@](O)(Cn1cncn1)c1ccc(F)cc1F [ravuconazole]	106%	103%	99.3%	84%	59.3%						97.1%	99.3%	84.8%	99.9%	49.1%	101%	105%	95.9%	100%	85.9%	96.3%	95.9%	101%	102%	98.6%		3.14 µM	> 10 µM	> 10 µM	4.2		2.7	0.2	0	
COc1ccc(-n2[nH]c3c4c(ncc3c2=O)CCCCC4)cc1	99.9%	107%	95.7%	107%	94.2%	110%	98.7%	99.8%	97.2%	112%						96.4%	100%	94.2%	103%	95.9%	102%	105%	100%	98.2%	99.6%	> 10 µM		> 10 µM	> 10 µM	0	0		0	0	> 10 µM
CNC(=O)c1c(F)cccc1Nc1nc(Nc2cc3c(cc2OC)CCN3C(=O)CN(C)C)nc2[nH]ccc12	103%	93.4%	92.3%	85.7%	52.8%	99.4%	104%	103%	95.1%	91.3%	100%	101%	77.3%	53%	56.5%	97.7%	98.9%	100%	87.9%	78.5%	101%	97%	94.1%	93.4%	101%			> 10 µM	> 10 µM	4.1	0	11.5	2	0	> 10 µM
CC1(C)C[C@@H]1C(=O)N/C(=C\CCCCSC[C@H](N)C(=O)O)C(=O)O [Cilastatin Sodium]	101%	107%	105%	99%	102%						108%	102%	95.4%	87.7%	96.5%	97.4%	100%	95.9%	102%	97.6%	104%	102%	99.2%	99.8%	94.3%	> 10 µM	> 10 µM	> 10 µM	> 10 µM	0		0.9	0	0	
C[C@@H]1CCC[C@H](C)N1NC(=O)c1ccc(Cl)c(S(N)(=O)=O)c1 [clopamide]	94.5%	104%	110%	105%	104%	102%	106%	104%	104%	95.1%											99.4%	102%	104%	99.4%	105%	> 10 µM			> 10 µM	0	0			0	> 10 µM
N#Cc1ccc(C(c2ccc(C#N)cc2)n2cncn2)cc1 [letrozole]	106%	107%	96.2%	105%	97.3%	97.1%	101%	101%	99.1%	99%						104%	105%	99.6%	107%	101%	106%	106%	114%	99.9%	105%	> 10 µM		> 10 µM	> 10 µM	0	0		0	0	> 10 µM
Cc1ncc([N+](=O)[O-])n1CC(O)CN1CCOCC1 (stereo not given) [morinidazole]	103%	92%	100%	109%	102%						96.3%	108%	94.2%	96.6%	102%	101%	95.1%	106%	104%	101%	99.7%	97.1%	96.3%	96.7%	101%	> 10 µM	> 10 µM	> 10 µM	> 10 µM	0		0	0	0	
C#CC1(OCC(O)CN2CCN(c3cccc(C(F)(F)F)c3)CC2)CCCCC1 (stereo not given) [terciprazine]	102%	92.2%	101%	86.1%	87%						96%	110%	110%	91.1%	90.9%	100%	98.6%	99%	96.8%	95%	106%	93.6%	104%	99.4%	87%	> 10 µM	> 10 µM	> 10 µM	> 10 µM	1		0	0	0.1	
